Data: PubChem BioAssay AID504893 (The Scripps Research Institute Molecular Screening Center, 2011)

Target: cAMP-dependent protein kinase type II-beta regulatory subunit (Homo sapiens) (UniProt P31323)
Assay: activators of PKA-R2B holoenzyme, dose response, selectivity assay for PKA-R1A activator project, biochemical, fluorescence polarization, EC50, human R2B (AID 504893)
Conditions: Cy5-IP20 fluorescence polarization activation

Chain of cAMP-dependent protein kinase type II-beta regulatory subunit (Homo sapiens) (P31323 whole entry, looked up): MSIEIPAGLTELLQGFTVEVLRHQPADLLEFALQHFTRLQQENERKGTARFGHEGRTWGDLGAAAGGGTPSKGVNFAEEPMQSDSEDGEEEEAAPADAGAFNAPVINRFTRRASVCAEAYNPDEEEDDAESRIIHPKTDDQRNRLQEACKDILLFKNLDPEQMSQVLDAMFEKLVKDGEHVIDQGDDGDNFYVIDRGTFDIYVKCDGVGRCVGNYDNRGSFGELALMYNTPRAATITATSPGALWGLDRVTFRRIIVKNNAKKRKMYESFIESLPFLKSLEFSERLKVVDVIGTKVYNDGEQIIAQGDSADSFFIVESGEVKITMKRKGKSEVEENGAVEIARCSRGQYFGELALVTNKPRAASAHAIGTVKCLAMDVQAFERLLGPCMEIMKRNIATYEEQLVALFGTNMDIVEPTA

Work on `Nc1nc2c(nc(Br)n2[C@@H]2O[C@@H]3COP(=O)(O)O[C@H]3[C@H]2O)c(=O)[nH]1` yielded an EC50 of 2.16 µM.

For `Nc1ncnc2c1nc(Sc1ccc(Cl)cc1)n2[C@@H]1O[C@@H]2COP(=O)(O)O[C@H]2[C@H]1O`, the EC50 was 0.0505 µM.

`CCCC(=O)Nc1ncnc2c1ncn2[C@@H]1O[C@@H]2OP(=O)(O)OC[C@H]2[C@H]1OC(=O)CCC` showed an EC50 of 9.1 µM.

Work on `Nc1ncnc2c1nc(Br)n2[C@@H]1O[C@@H]2COP(=O)(O)O[C@H]2[C@H]1O` yielded an EC50 of 0.0511 µM.

Compound `CCOP1(=O)OCC2OC(n3cnc4c(N)ncnc43)C(O)C2O1` (stereo not given) has an EC50 of 3.75 µM.
